Measured values reported in patent US20190136188A1, “4HPR AND ITS USE IN THE CULTURING OF HEMATOPOIETIC STEM CELLS” (UNIVERSITY HEALTH NETWORK, priority 2016, published 2019).
“Also recorded” adds a separate entry of the source.

Tests used:
[1] = tested on: sorted HSC, MPP or GMP; test: Colony forming assay (CFC) in methylcellulose; assay type: cell-based, human; conditions: for cloning efficiency of the HSC / relative number of colonies relative to vehicle control: 35 nM UM171 or 0.5 uM SR1, 10 days
Description: (A) Dose response of varying [4HPR] in CB at day 3 post-treatment showing 2 uM 4HPR gives the relative half maximal number of viable cells compared to control. All experiments following are at this 4HPR concentration unless otherwise indicated. […] (C) LC/MS was used to profile the ceramide (Cer), dihydroceramide (dhCer), sphingosine (sph), dihydrosphingosine (dhSph), S1P and dihydro-S1P (dhS1P) levels in lin− CB cells cultured for 8 days with control or 4HPR (n=2). […] (D) HSC, MPP, or GMP were sorted into methylcellulose for CFC assays in the presence of control or 4HPR and colonies were blindly scored following 10-11 days for (D) colonies/100 cells and ((E) colony distribution are shown (n=7). (F) Flow cytometry for erythroid (GlyA+) and monocytic (CD14+) markers in live cells from pooled CFC colonies were scored (n=6). (F) Relative number of colonies from CFC assays comparing the effect of 4HPR or ATRA (n=3) on sorted HSC, MPP or GMP. […]
(A) Representative flow cytometry analysis of the primitive hierarchy within the CD34+ fraction of day 8 cultured lin− CB cells after the indicated treatments for CD90 and CD45RA, n=4. B) The distribution of cultured CD34+CD90+CD45RA− (cHSC), CD34+CD90−CD45RA− (cMPP), and […] for the indicated conditions at day 8 of ex vivo culture following CD34 enrichment. Statistical significance assayed through unpaired t-test relative to vehicle control (Ctrl). The relative number of colonies resulting from (C) HSC or (D) MPP grown in methylcellulose CFC assays in the presence of vehicle control (−) or the indicated combination of 2 uM 4HPR, or 35 nM UM171 or 0.5 uM SR1 at 10 days. Statistical significance is calculated via unpaired t-test relative to ctrl (black) or to the presence of absence of 4HPR treatment for UM171 or SR1.
However, the functional consequence of 4HPR treatment on human cord blood primitive cells is unknown. A dose titration of 4HPR was performed on lineage-depleted CB (lin-CB) cells and 2 uM was calculated to give half maximal cell viability at 3 days post-treatment compared to vehicle control (ctrl), a concentration reported in cell lines to antagonize DEGS1 enzymatic function, and used for all subsequent experiments unless otherwise indicated (FIG. 1A). […] Next, we utilized the colony forming assay (CFC) for in vitro progenitor function to determine if 4HPR treatment alters functional output from isolated populations of CB HSPC. […] This is unsurprising as retinoic acid signaling is a potent differentiation signal in hematopoietic cells. Thus, 4HPR inhibition of sphingolipid homeostasis selectively enhances cloning efficiency in human HSC.
Given the CD34 compartment where functional HSC should reside following ex vivo expansion is critical to blood production, we asked if there were immunophenotypic alterations following 4HPR treatment. StemRegenin-1 (SR1) or UM171 are two molecules whose action on CB has been reported to expand CD34+ cells dramatically and lead to increase reconstitution in xenotransplantation (Fares, et al Science, 2014: Boitano, Science, 2010). We sought to ask if limiting CD34+ expansion with 4HPR treatment is synergistic with these known agonists of CB ex vivo expansion. Lin− CB were cultured with these 3 small molecules alone or in combination for 8 days and the CD34 compartment was isolated and analyzed by flow cytometry further with CD90 and CD45RA to look at immunophenotypic cultured HSC (cHSC), MPP (cMPP) and committed progenitors (cProg). These populations were sorted from lin-CB at […] following expansion and transplanted into NSG mice for 16 weeks to ascertain that cProg cells are committed progenitors, while cHSC and cMPP retain multipotency following culture (FIG. 8A, B). […]

[2] = tested on: sorted HSC and MPP; test: 8 day ex vivo expansion of sorted HSC and MPP, CD34+ compartment by flow cytometry; assay type: cell-based, human; conditions: D8 after ex vivo expansion
Source text: B) Lymphoid and C) myeloid engraftment from (A) at 16 weeks post-transplantion. […] F) Flow cytometry plots showing the CD34+ population from 8 day cultured HSC.
Given the CD34 compartment where functional HSC should reside following ex vivo expansion is critical to blood production, we asked if there were immunophenotypic alterations following 4HPR treatment. StemRegenin-1 (SR1) or UM171 are two molecules whose action on CB has been reported to expand CD34+ cells dramatically and lead to increase reconstitution in xenotransplantation (Fares, et al Science, 2014: Boitano, Science, 2010). We sought to ask if limiting CD34+ expansion with 4HPR treatment is synergistic with these known agonists of CB ex vivo expansion. Lin− CB were cultured with these 3 small molecules alone or in combination for 8 days and the CD34 compartment was isolated and analyzed by flow cytometry further with CD90 and CD45RA to look at immunophenotypic cultured HSC (cHSC), MPP (cMPP) and committed progenitors (cProg). […] To further elucidate the specific action of 4HPR on HSC over MPP and compare this to UM171 and SR1, sorted HSC and MPP were put into ex vivo expansion conditions for 8 days with the same treatments as in FIG. 7A, B and their growth and CD34+ compartment were monitored by flow cytometry (FIG. 8D-F). […]

| SMILES | colony output ([1]; ATRA treatment, HSC, MPP, GMP) | cloning efficiency of the HSC [1] | relative number of colonies relative to vehicle control [1] | primitive CD34+ cells from sorted HSC and MPP [2] |
| --- | --- | --- | --- | --- |
| CC1=C(/C=C/C(C)=C/C=C/C(C)=C/C(=O)O)C(C)(C)CCC1 [ATRA, all-trans retinoic acid] | decreases colony output from all HSPC populations |  |  |  |
| Cn1nnc(-c2ccc3c(c2)[nH]c2nc(Cc4ccccc4)nc(N[C@H]4CC[C@H](N)CC4)c23)n1 [UM171, (1r,4r)-N1-(2-benzyl-7-(2-methyl-2H-tetrazol-5-yl)-9H-pyrimido[4,5-b]indol-4-yl)cyclohexane-1,4-diamine] |  | both decreased cloning efficiency of the HSC | Neither UM171 nor SR1 altered relative number of colonies | promote CD34+ expansion more from MPP than HSC; also recorded: dramatically increases primitive CD34+ from both HSC and MPP |
| CC(C)n1cnc2c(NCCc3ccc(O)cc3)nc(-c3csc4ccccc34)nc21 [SR1, StemRegenin-1] |  | both decreased cloning efficiency of the HSC | Neither UM171 nor SR1 altered relative number of colonies | promote CD34+ expansion more from MPP than HSC; also recorded: occurs primarily in sorted MPP, not HSC |
